Results taken from patent US12492163B2, “9H-fluorene derivatives or their pharmaceutically acceptable salts” (priority 2020, dated 2025).

Assays:
[1] = biological target: human recombinant beta-secretase (hBACE1) (Homo sapiens (Human), UniProt P56817); test: FRET assay, inhibition of human recombinant beta-secretase; format: biochemical; conditions: 50 μM inhibitor concentration; read-out: hBACE-1 % inh
In short: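 hBACE1 (added as 1 U/ml solution) cleaves a rhodamine/quencher peptide based on the Swedish APP mutation in 50 mM sodium acetate pH 4.5, 60 min at 25 °C, stopped with 2.5 M sodium acetate; fluorescence at 576 nm. % inhibition from 0–60 min signal change versus enzyme-only blanks; screened at 50 μM in triplicate; IC50 by non-linear regression.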

[2] = test system: ICR-CD1 mice; test: Acute toxicity study in mice; format: in vivo, Mus musculus; set-up: key to Tremor / Convulsions / Hyper/Hypoventilation / Drooping eyelids / General exhaustion: mild (+); moderate (++); severe (+++)
Protocol: The research was carried out at the Department of Toxicology and Military Pharmacy, Faculty of Military Health Sciences in Hradec Kralove, Defense University in Brno in the Czech Republic, at the Biomedical Research Center and at the Department of Clinical Biochemistry of the University Hospital Hradec Kralove in the Czech Republic. All procedures were carried out under the supervision of the Ethics Committee of the Faculty of Military Health Sciences (No. 20/19; MO 215611/2019-684800). Male and female ICR-CD1 strain of domestic mice (Mus musculus) (body weight approx. 20-25 g) were used in the research. The animals were kept in standard, appropriately sized cages, divided into groups of a maximum of 8 animals. The animals in the test groups were administered the test compound intraperitoneally (doses in the acute toxicity study: 10, 20, 40 and 60 mg/kg, dose in the study of pharmacokinetic parameters 10 mg/kg). Control groups received 1% Tween 80.
The study assesses the toxicity profile of the compound by observation of emerging adverse effects, biochemical parameters analysis and histopathological analysis, and determines the maximum tolerated dose (MTD). Mice were randomly assigned to experimental groups consisting of two males and two females. […] Toxic symptoms were classified as in the previous published study [J. Misik]. Weight loss or reduction in food consumption was assessed according to the FELAS classification [K. L. Chapman] for the first two hours, and then periodically for the next 46 hours. All 48-hour survivors were euthanized. Blood was collected for biochemical analysis and selected organs (kidneys and liver) were collected for histopathological examination. Venous blood was collected in heparinized tubes. Plasma was then separated (3000×g, 5 min, 4° C.) using a centrifuge. The concentration of urea and creatinine as well as the activity of alanine aminotransferase (ALT), aspartate aminotransferase (AST), alkaline phosphatase (ALP), amylase and lactate dehydrogenase (LDH) were determined in an accredited biochemical laboratory. The harvested organs: liver and kidneys were used for standard histopathological examination. Organs were fixed with 10% neutral buffered formalin, processed for histology, and stained with hematoxylin and eosin as in a previous published study [J. Pejchal]. Histopathological changes were assessed microscopically.

[3] = 10 mg/kg (MTD) i.p., mouse Female1
[4] = 10 mg/kg (MTD) i.p., mouse Female2
[5] = 10 mg/kg (MTD) i.p., mouse Male1
[6] = 10 mg/kg (MTD) i.p., mouse Male2
[7] = plasma, 10 mg/kg (MTD) i.p., 48 h

human recombinant beta-secretase (hBACE1), sequence (P56817 46-501): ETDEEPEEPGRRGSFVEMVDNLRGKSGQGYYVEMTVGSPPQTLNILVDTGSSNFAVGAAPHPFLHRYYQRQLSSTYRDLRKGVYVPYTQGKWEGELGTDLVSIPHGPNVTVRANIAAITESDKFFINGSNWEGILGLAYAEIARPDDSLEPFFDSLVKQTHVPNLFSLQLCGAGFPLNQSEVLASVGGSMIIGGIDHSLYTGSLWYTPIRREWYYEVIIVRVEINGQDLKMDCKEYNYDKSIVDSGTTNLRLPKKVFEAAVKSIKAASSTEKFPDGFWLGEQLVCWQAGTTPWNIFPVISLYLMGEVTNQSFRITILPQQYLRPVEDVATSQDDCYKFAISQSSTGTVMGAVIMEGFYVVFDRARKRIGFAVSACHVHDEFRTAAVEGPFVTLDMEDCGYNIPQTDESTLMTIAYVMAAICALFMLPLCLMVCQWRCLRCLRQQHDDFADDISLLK

## O[C@H](CNCC1CC1)[C@H](Cc1ccccc1)NC1c2ccccc2-c2ccccc21 [JT-3, (2R,3S)-3-((9H-fluoren-9-yl)amino)-1-((cyclopropylmethyl)amino)-4-phenylbutan-2-ol]
[1]
  inhibition at 50 µM: 61.3%
[2]; 10 mg/kg (MTD) i.p.
  changes in biochemical parameters (urea, creatinine, liver enzymes, ALP, amylase, LDH) compared to control: no statistically significant changes
  histopathological changes (liver, kidneys): only sporadic infiltration of neutrophils into the liver and adipose tissue was observed in two animals, without any signs of liver or kidney damage
[2]; [3]
  Body weight change at 24 h (%): −3.9%
  Body weight change at 48 h (%): −0.4%
  Drooping eyelids: +
  General exhaustion: +
  Hyper/Hypoventilation: +
  Tremor: +
[2]; [4]
  Body weight change at 24 h (%): −5.8%
  Body weight change at 48 h (%): −5.2%
  Convulsions: +
  Drooping eyelids: +
  General exhaustion: +
  Hyper/Hypoventilation: +
  Tremor: ++
[2]; [5]
  Body weight change at 24 h (%): −1.3%
  Body weight change at 48 h (%): −2.4%
  General exhaustion: +
  Hyper/Hypoventilation: +
  Tremor: +
[2]; [6]
  Body weight change at 24 h (%): −1.2%
  Body weight change at 48 h (%): −0.7%
  General exhaustion: +
  Hyper/Hypoventilation: +
  Tremor: +
[2]; mice, i.p., doses tested 10, 20, 40 and 60 mg/kg
  maximum tolerated dose (MTD): 10 mg/kg
[2]; [7]
  ALP: 68.4 ± 27.2 U/L
  ALT: 29.0 ± 6.5 U/L
  AST: 56.8 ± 6.6 U/L
  Amylase: 2955 ± 501 U/L
  LDH: 275 ± 94 U/L
  Urea: 33.8 ± 8.2 mg/dL
